Key:
tumor-recruited MDSCs = conditions: mouse tumor models; cited from earlier work
[1] = test system: Adenovirus-specific T cells producing IFNγ; assay: IFNγ-ELISpot, vector-specific T cell response (Ad-specific peptide FAL) in HBV-persistent mice; type: in vivo, C57BL/6J mice; conditions: splenocytes, day 76 post AAV2/8-HBV; sildenafil 20 mg/kg/day D31-59 or D48-76; AdTG18201 2×10^9 vp sc D36, 43, 50
Experimental: The capacity of splenocytes to produce IFNγ after different in vitro stimulations was measured by an IFNγ-ELISpot assay at day 76 post AAV2/8-HBV injection. Vector-specific T cell responses were assessed using the Ad-specific peptide FAL. Results are shown as the number of spots per 10^6 splenocytes. Each dot represents an individual mouse and thick line represents the mean value for each group (+/−SEM). The horizontal gray line represents the technical cutoff value (50 spots/10^6 cells) above which values are considered as positive T cell responses and which was defined as described in the Material and Methods. For groups with a positive T cell response, incidence of mice per group is indicated on the graph.
The HBV persistent mice used in the study were described by Dion et al. (2013, J Virol, 87(10):5554-63). […] This allows the analysis of HBV-specific viral parameters (HBsAg, HBeAg, HBcAg and viremia) as well as immunological read-outs (ICS, ELISpot or humoral immune responses). […]
IFNg-producing T cells were quantified by cytokine-specific ELISpot (enzyme linked immunospot) assay as previously described (Himoudi et al., 2002, J. Virol. 76: 12735). The number of spots (corresponding to the IFNg-producing T cells) in negative control wells were subtracted from the number of spots detected in experimental wells containing HBV peptides. […]

anti-HBc antibodies = assay: Anti-HBc antibody level by ELISA in HBV-persistent mice; type: in vivo, C57BL/6J mice; conditions: serum 1/2000, up to day 76; sildenafil 20 mg/kg/day D31-59 or D48-76
From the text: Graphs A-F illustrate anti-HBc antibody levels determined respectively in individual mice of the six study groups 1-6. Individual mice are shown as thin line and the group mean titers as bold dotted black line. In all graphs the Y-axis indicates the anti-HBc levels (OD450) and the X-axis the time (number of days post-AAV2/8-HBV injection). Time points of immunization (D36, D43, D50) are shown by a dashed line and the period of sildenafil treatment is shown by a horizontal bar on the top of the graph.
The HBV persistent mice used in the study were described by Dion et al. (2013, J Virol, 87(10):5554-63). The model is based on the introduction in mice of an adeno-associated virus (AAV) encoding for a full length HBV genome (AAV2/8-HBV) and causing the production of infectious HBV particles in mouse livers. This allows the analysis of HBV-specific viral parameters (HBsAg, HBeAg, HBcAg and viremia) as well as immunological read-outs (ICS, ELISpot or humoral immune responses). […]
96-well Immulon 4HBX plates (Thermo Scientific) were coated overnight at +4° C. with 100 μL of recombinant HBc (Prospec) diluted to 1 μg/mL in BupH Carbonate-Bicarbonate buffer (Thermo Scientific Cat#28382). […] Ten minutes later, reaction was stopped by adding of 100 μL per well of 1N HCl and optic density was measured at 450 nm with Tecan Infinity 200 reader. […]

Question: Which “intratumoral T cell infiltration and activation” value (tumor-recruited MDSCs) does the source give for `CCCc1nn(C)c2c(=O)nc(-c3cc(S(=O)(=O)N4CCN(C)CC4)ccc3OCC)[nH]c12` [sildenafil, 1-[[3-(4,7-dihydro-1-methyl-7-oxo-3-propyl-1H-pyrazolo[4,3-d]pyrimidin-5-yl)-4-ethoxyphenyl]sulfonyl]-4-methylpiperazine] here?
Answer: enhance intratumoral T cell infiltration and activation

Question: What about the “IFNg-response to the Ad-specific peptide FAL” value [1] of the same molecule?
Answer: negative

Question: What about the “anti-HBc antibodies induction (OD450)” value (anti-HBc antibodies) of the same molecule?
Answer: no anti-HBc antibodies were induced

Source: US20190328869A1, “IMMUNOTHERAPEUTIC PRODUCT AND MDSC MODULATOR COMBINATION THERAPY” (Transgene SA, priority 2016, published 2019)
